The values below come from patent EP2532242A1, “Use of bispyridiniumalkanes for killing spores” (L'AIR LIQUIDE, SOCIETE ANONYME POUR L'ETUDE ET …, priority 2011, dated 2012).

For one test, the system named is spores. As to conditions: prior art; cited from earlier work.
For test [1], the system named is Bacillus subtilis ATCC 6633. Put plainly: Concentration test spores of Bacillus subtilis (method B), with and without lysozyme. Type of test: cell-based. The note with it: use concentration of 0.001% (Figure 2). How it is done: • fixed pipettes 1 ml; 500 µl, and 100 µl • sterile glass pipettes 10 ml • sterile spatulas • sterile Schott bottles • water bath 30°C • CSA-agar + TLSH (Tween 80 3%; lecithin 0.3%; saponin 3%, histidine 0.1%) • Bacillus subtilis ATCC 6633 stored in a) H2O or b) ethanol
Spore samples are provided commercially, sometimes as ethanolic solution (40% ethanol in water).
Germination medium: + TLSH:
The germ count of the ordered spore solution is ascertained prior to the start of the experiment by means of plating out and counting and, if appropriate, the spore suspension is diluted. On the day of the experiment, a starting germ count (SGC) is again generated from the spore suspension used. By means of spore counting under the microscope in a Helber chamber, a comparison is drawn between spores which are actually present and the number of germinating spores. The starting spore count should be ca. 1 × 10^7 CFU/ml. With the help of the malachite green coloration, adequate sporulation of the spore suspension used was verified by means of light microscopy.
Samples are taken regularly over several weeks. The experimental solutions stand in the dark at room temperature during the action times.
In each case 50 ml per solution to be investigated are pipetted into a sterile Schott bottle, inoculated with 50 µl of spore suspension and incubated at room temperature. […]

Regarding `CCCCCCCCCC[N+](C)(C)CCCCCCCCCC.[Cl-]` [didecyldimethylammonium chloride], in the test on spores, the germination of spores result is given as “prevent the germination of spores” and the killing of spores entry is reported as “do not kill them”.
As for `CCCCCCCCN=c1ccn(CCCCCCCCCCn2ccc(=NCCCCCCCC)cc2)cc1.Cl.Cl` [octenidine, N,N'-(1,10-decanediyldi-1[4H]-pyridinyl-4-ylidene)bis(1-octanamine) dihydrochloride], in test [1], the “effect against B. subtilis ATCC 6633” value is “effective” and the “time after which the effect can be detected” value is given as “after just one day”.
As to benzalkonium chloride, in the test on spores, the germination of spores entry is “prevent the germination of spores” and the killing of spores result is listed as “spores are not killed”.
